Assay results: US20250092399A1, “GENE THERAPY TARGETING THE NEONATAL FORM OF NAV1.5 FOR TREATING CANCER” (Celex Oncology Innovations Limited, priority 2018, published 2025)
Values joined by “and” are separate entries in the source; they are usually repeats but may differ in a detail not shown here. Identical values can stand only once. Like-named read-outs stand apart in the source and are kept apart here.

What was measured:
[1] = tested on: Nav1.5 splice variant (neonatal and adult); details: cited from earlier work
SW620 cells [2] = test: Cell viability (trypan blue exclusion) and proliferation (MTT); format: cell-based, human
Procedure: Cellular viability (toxicity) and proliferation were quantified as described previously (Fraser et al., 1999, 2003b; Grimes et al., 1995). Briefly, cells were seeded into 35 mm plates at 3.5×10^4/plate (for toxicity) or 24-well plates at 2× 10^4/well (for proliferation) and allowed to settle overnight. The cells were incubated under control conditions or treated with the drug, with a change of medium every 24 h. Cell viability was determined by trypan blue exclusion assay. Proliferation was determined by the colorimetric 3-(4,5-dimethylthiazol-2-yl)-2,5-diphenyltetrazolium bromide (MTT) assay. A ‘standard curve’ was constructed showing linearity over the experimental range. Each biological repeat (treatment and control) was performed in triplicate.

nNav1.5 mRNA = test: Real-time RT-PCR of nNav1.5 mRNA levels in SW620 cells; format: cell-based, human; details: for decrease in nNav1.5 mRNA levels in comparison to c-siRNA: 40 nM siRNA, 90 h after transfection
Procedure: Steps for polymerase chain reactions (PCRs) were as described before (Fraser et al., 2005). Conventional PCRs were performed using HotStarTaq Plus technology (Qiagen Ltd, Manchester, UK) in a Primus PCR machine (MWG-Biotech, Eurofins Genomics, Ebersberg, Germany). Quantitative real-time PCRs were carried out utilising SYBR Green technology (Qiagen) and a DNA Engine Opticon 2 system (MJ Research, Bio-Rad Laboratories Ltd, Hamel Hempstead, UK). Duplicate reactions on each sample were carried out simultaneously for target and reference genes. Control PCRs were carried out routinely by including non-target (-RT) reactions and monitoring melting curves. The primer pairs used were as follows:
The mRNA levels were quantified using the comparative 2^−ΔΔC(t) method (Livak and Schmittgen, 2001).
(§1) Lipofectamine 2000 reagent (Invitrogen) was used as the transfection agent and the protocol was applied according to the manufacturer's instructions. […] Electrophysiological recordings of siRNA-treated cells were also performed in parallel at given time points and in random order. For these treatments, recordings were made from 19-37 cells from ≥4 different transfections with matching controls.

nNav1.5 protein = test: Western blot of nNav1.5 protein expression (NESO-pAb); format: cell-based, human
Procedure: Cells were washed with PBS containing 0.5 mM NaF, 0.1 mM Na3 VO4 (Sigma-Aldrich) and lysed in RIPA buffer (0.5M Tris-HCl, pH 7.4, 1.5M NaCl, 2.5% deoxycholic acid, 10% NP-40, 10 mM EDTA) (Merck-Millipore Ltd, Watford, UK) supplemented with an EDTA-free protease inhibitor cocktail (Roche Products Ltd, Welwyn Garden City, UK). Then, cells were vortexed for 30 mins at 4° C. The lysate was centrifuged (15,000 g) at 4° C. and supernatant collected for measurement of the protein concentration by a standard Bradford assay (Bio-Rad protein assay, Bio-Rad). After 15 minutes at 70° C. in SDS loading buffer (62.5 mM Tris-HCl, 20% glycerol, 2% SDS, 100 mM DTT, 0.0025% bromphenol blue, 10% B-mercaptoethanol; pH 6.8), 50 μg of protein per lane was separated by 7.5% SDS-polyacrylamide gel electrophoresis and electroblotted onto 0.45 μm nitrocellulose membrane (Thermo Scientific). Equal protein loading was controlled by Ponceau S staining (Sigma-Aldrich). Membranes were ‘blocked’ with 5% bovine serum albumin (BSA) in TBS+0.1% Tween-20 for 1 hour and probed for 20 hours with the following primary antibodies (diluted in TBS+0.1% Tween 20+1% BSA): i) NESO-pAb antibody for nNav1.5 (1 μl/ml); and (ii) anti-actinin antibody (1 μl/ml) as loading control (Sigma-Aldrich). […]

SW620 cells [3] = test: Matrigel invasion assay; format: cell-based, human; details: for reduction in number of invaded cells compared to c-siRNA: 40 nM siRNA, invasion over 48 h
Procedure: For hypoxia, cells were maintained as above but in 1% O2 for up to 120 h in a dedicated incubator (Micro Galaxy, RS Biotech Laboratory Equipment Ltd, Irvine, UK).
as §1
Thus, (i) insert filters (with 8 μm pores) were coated with 50 µl of 0.21 mg/ml Matrigel (BD Biosciences, Bedford, MA, USA); (ii) the chemotactic gradient was 0.1-10% FBS; and (iii) the cells were serum-starved for 24 hours and (iv) 10^5 cells were seeded onto each filter. After 48 hours, the insert was swabbed and then stained with crystal violet. The invaded cells in 12 non-overlapping fields of view were counted under ×400 magnification. […] Each treatment condition was tested 5-8 times.

[4] = target: persistent current, INaP, of VGSC, especially Nav1.5 (Canis lupus familiaris, UniProt Q865W3); details: Antzelevitch et al., 2004; read-out: IC50 for block of hypoxia-induced persistent current INaP; cited from earlier work
[5] = tested on: VGSC currents (nNav1.5 / aNav1.5) in SW620 cells; test: Whole-cell patch-clamp recording of VGSC currents in siRNA-transfected SW620 cells; format: cell-based, human; details: for proportion of cells demonstrating VGSC currents / peak VGSC current density: SW620 cells after siRNA transfection; for peak VGSC current density: median (25%-75% interquartile range); for Activation V1/2 (half-activation voltage) / Activation k (activation slope factor) / Inactivation V1/2 (half-inactivation voltage) / Inactivation k (inactivation slope factor) / Tinactivation (inactivation time constant) / Tpeak (time to peak): SW620 cells, 40 nM siRNA, 96 h transfection, 24 h serum starvation, mean ± SEM
Source text: Details of the patch pipettes, solutions, and the whole-cell recording protocols were as described previously (e.g. Laniado et al., 1997; 2001; Fraser et al., 2003a; Grimes et al, 1995). In brief, patch pipettes (tip resistances, ˜5 M Ω) were filled with a solution designed to block the outward K^+ currents; the composition was as follows (in mM): NaCl 5, CsCl 145, MgCl2 2, CaCl2) 1, HEPES 10 and EGTA 11, adjusted to pH 7.4 with 1 M CsOH. The estimated intracellular free Ca^2+ concentration was ˜15 nM (Laniado et al., 2001). Whole-cell membrane currents were recorded from cells that appeared ‘isolated’ in culture, using an Axopatch 200B amplifier (Axon Instruments, CA, USA). Analogue signals were filtered at 10 kHz using a low-pass Bessel filter, and series resistance errors were compensated by >90%. Electrophysiological signals were sampled at 50 kHz and digitised using an interface (Digidata 1200). Data acquisition and analysis of whole-cell currents were performed using pClamp software (Axon Instruments). A holding potential of −100 mV was applied, unless indicated otherwise. Standard voltage-clamp protocols were used to study the electrophysiological properties of the VGSC currents. There was a noticeable decrease in current amplitude with time in culture, also apparent in immunocytochemistry (FIG. 7). All routine recordings were done 24 hours after (re) plating and 24 hours of serum starvation (to match the condition of the invasion assays).
Conductance-voltage relationships were determined using the equation:
[formula] • where G is the conductance; I the current amplitude; V the test pulse; and Vrev the theoretical Na^+ reversal potential. Normalized curves for voltage dependence of steady-state activation and inactivation were fitted to a Boltzmann function of the form:
[formula] • where Gmax is the maximal conductance; Vm is the membrane voltage; V1/2 is the voltage at which the current is half activated/inactivated, and k is the slope factor of voltage sensitivity. For the time course of recovery from inactivation, the data was plotted as a function of recovery time and fitted to the following single exponential equation:
[formula] • where I is normalized current, t is time, t is the time constant, A is the amplitude of the normalized current, and C is the asymptote. More details can be found in Onkal et al. (2008).
as §1

persistent current, INaP, of VGSC, especially Nav1.5, sequence (Q865W3 1-2013): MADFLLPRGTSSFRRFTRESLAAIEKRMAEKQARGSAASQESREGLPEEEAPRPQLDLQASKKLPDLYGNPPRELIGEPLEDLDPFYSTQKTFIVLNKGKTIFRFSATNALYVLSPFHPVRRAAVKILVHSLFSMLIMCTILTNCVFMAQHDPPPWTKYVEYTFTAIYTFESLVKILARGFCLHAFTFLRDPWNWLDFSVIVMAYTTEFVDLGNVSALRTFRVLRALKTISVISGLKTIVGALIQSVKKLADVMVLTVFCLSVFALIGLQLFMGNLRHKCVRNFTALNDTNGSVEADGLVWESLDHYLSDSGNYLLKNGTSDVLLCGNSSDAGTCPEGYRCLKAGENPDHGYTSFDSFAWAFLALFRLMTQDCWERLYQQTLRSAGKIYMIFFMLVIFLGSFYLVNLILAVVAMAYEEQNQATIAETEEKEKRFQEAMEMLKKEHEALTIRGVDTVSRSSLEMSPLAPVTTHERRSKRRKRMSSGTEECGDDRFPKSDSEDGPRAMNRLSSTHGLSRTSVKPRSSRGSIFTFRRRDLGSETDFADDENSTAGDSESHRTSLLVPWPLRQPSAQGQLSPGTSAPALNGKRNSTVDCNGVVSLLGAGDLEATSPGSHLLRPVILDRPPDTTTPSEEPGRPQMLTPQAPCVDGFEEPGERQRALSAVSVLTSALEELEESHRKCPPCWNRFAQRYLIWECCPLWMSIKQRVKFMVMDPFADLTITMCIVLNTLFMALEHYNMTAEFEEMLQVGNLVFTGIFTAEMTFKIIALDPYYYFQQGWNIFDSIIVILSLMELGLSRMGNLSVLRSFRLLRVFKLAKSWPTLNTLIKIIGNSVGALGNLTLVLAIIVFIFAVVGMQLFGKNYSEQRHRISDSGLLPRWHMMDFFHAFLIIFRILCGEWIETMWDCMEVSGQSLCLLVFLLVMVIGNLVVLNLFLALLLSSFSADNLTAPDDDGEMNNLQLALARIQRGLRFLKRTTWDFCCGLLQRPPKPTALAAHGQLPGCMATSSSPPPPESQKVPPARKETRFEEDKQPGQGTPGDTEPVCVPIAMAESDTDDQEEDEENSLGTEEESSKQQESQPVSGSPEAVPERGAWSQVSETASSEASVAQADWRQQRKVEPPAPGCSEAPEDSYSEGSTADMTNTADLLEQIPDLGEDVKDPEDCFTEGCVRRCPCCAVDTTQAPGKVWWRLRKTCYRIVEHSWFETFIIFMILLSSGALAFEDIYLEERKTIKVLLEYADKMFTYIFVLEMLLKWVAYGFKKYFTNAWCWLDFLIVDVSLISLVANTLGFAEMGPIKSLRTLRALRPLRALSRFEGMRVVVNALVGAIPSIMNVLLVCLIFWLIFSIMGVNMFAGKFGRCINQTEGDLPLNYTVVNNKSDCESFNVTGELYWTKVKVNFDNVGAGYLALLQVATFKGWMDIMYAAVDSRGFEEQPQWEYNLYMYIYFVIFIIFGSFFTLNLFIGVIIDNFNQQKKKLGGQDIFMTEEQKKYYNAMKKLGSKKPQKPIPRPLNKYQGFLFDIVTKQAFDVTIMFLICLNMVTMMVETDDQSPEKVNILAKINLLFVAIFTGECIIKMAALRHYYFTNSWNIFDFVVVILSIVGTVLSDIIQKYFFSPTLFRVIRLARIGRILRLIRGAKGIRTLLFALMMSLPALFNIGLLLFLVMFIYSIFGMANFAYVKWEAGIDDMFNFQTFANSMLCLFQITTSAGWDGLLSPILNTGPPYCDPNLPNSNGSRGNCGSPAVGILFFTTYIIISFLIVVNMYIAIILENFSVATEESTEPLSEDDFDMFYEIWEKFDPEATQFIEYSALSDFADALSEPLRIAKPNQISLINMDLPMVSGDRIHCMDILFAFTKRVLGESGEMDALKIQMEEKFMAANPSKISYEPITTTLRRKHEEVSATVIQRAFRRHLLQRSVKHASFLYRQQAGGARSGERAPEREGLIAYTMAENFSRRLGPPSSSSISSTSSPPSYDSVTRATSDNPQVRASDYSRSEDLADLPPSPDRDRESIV

In the case of `NC1=N[C@H](O)[C@H]2[C@H]3O[C@]4(O)O[C@@H]([C@@H](O)[C@@]2(N1)[C@@H]4O)[C@]3(O)CO` [TTX, Tetrodotoxin], the “block of currents generated by either Nav1.5 splice variant” value [1] is listed as greater than 80%, the effect on proliferation (SW620 cells [2]) is listed as “not affected” and the “effect on hypoxia-induced increase of nNav1.5 mRNA expression” value (nNav1.5 mRNA) is listed as “blocked this increase”. For the same compound, the “effect on nNav1.5 mRNA expression” value (nNav1.5 mRNA) was “Lack of effect”, the “effect on nNav1.5 protein expression” value (nNav1.5 protein) was “no effect” and the “effect of TTX on invasiveness” value (SW620 cells [3]) was “no effect”. The effect on invasiveness (SW620 cells [3]) was “no effect”, the “reduction of invasiveness by TTX” value (SW620 cells [3]) was 32% and 34% and the “reduction of invasiveness cf. hypoxia control” value (SW620 cells [3]) was 45%. The inhibition of invasiveness (SW620 cells [3]; 20 µM) was 37%.

For `COc1ccccc1OCC(O)CN1CCN(CC(=O)Nc2c(C)cccc2C)CC1` (stereo not drawn) [ranolazine], the effect on proliferation (SW620 cells [2]; up to 10 µM, normoxia or hypoxia (not shown)) is listed as “not affected”, the IC50 [4] is listed as 5.9 µM and the “effect on hypoxia-induced increase of nNav1.5 mRNA expression” value (nNav1.5 mRNA; 5 μM, hypoxia 1% O2 48 h, SW620 cells) is listed as “blocked this increase”. For the same compound, the “effect on nNav1.5 mRNA expression” value (nNav1.5 mRNA; 5 μM, normoxia, SW620 cells) was “Lack of effect”, the “effect on nNav1.5 protein expression” value (nNav1.5 protein; 5 μM, normoxia and hypoxia, SW620 cells) was “no effect” and the “reduction in invasion cf. hypoxia control” value (SW620 cells [3]; 5 μM, hypoxia (1% O2, 72 h), SW620 cells) was 37%. The reduction in invasion (SW620 cells [3]; 5 μM, normoxia, SW620 cells) was 9%, the “inhibition of invasion, dose dependence” value (SW620 cells [3]; 1-10 μM, hypoxia, control/c-siRNA-treated SW620 cells) was “dose-dependent manner with two-fold difference over 1-10 μM” and the “effect on invasiveness in cells pre-treated with n3-siRNA” value (SW620 cells [3]; up to 10 μM, hypoxia, n3-siRNA pre-treated SW620 cells) was “no additional effect”.

In the case of “AGGUAGUGUAAUCGCCUUG (listed as RNA, chemistry not given here) [c-siRNA, non-targeting control siRNA supplied by Eurofins]”, the effect on invasiveness (SW620 cells [3]; SW620 cells, normoxia or hypoxia (1% O2, 72 h)) is reported as “no effect”.

In the case of CUAGGCAAUUUGUCGGCUC [n1-siRNA], the “decrease in nNav1.5 mRNA levels in comparison to c-siRNA” value (from here on “decrease in nNav1.5 mRNA levels”) (nNav1.5 mRNA; SW620 cells) is reported as 50±12%, the “reduction in number of invaded cells compared to c-siRNA” value (from here on “reduction in number of invaded cells”) (SW620 cells [3]; SW620 cells, normoxia) is reported as 64% and the “proportion of cells demonstrating VGSC currents” value (“proportion” below) [5] is reported as 42%. For the same compound, the “peak VGSC current density” value [5] was 0.0 (0-3.1) pA/pF.

In the case of GAGUCCUGAGAGCUCUAAA [n3-siRNA], the “decrease in nNav1.5 mRNA levels” value (nNav1.5 mRNA; SW620 cells) is reported as 32±10%, the “reduction in number of invaded cells” value (SW620 cells [3]; SW620 cells, normoxia) is reported as 73% and the “hypoxia-induced increase in invasiveness” value (SW620 cells [3]; SW620 cells, hypoxia 1% O2 72 h, siRNA-treated) is reported as “completely suppressed”. For the same compound, the “proportion” value [5] was 51%, the “peak VGSC current density” value [5] was 1.0 (0-6.8) pA/pF and the “Activation V1/2 (half-activation voltage)” value [5] was −24.7 ± 2.0 mV. The “Activation k (activation slope factor)” value [5] was 6.1 ± 0.3 mV, the “Inactivation V1/2 (half-inactivation voltage)” value [5] was −86.5 ± 1.2 mV and the “Inactivation k (inactivation slope factor)” value [5] was −5.0 ± 0.4 mV. For the same compound, the “Tinactivation (inactivation time constant)” value [5] was 0.80 ± 0.10 ms and the “Tpeak (time to peak)” value [5] was 0.66 ± 0.04 ms.

For “GUCUCAGCCUUACGCACCU (listed as RNA, chemistry not given here) [a-siRNA, siRNA targeting 'adult' Nav1.5 (aNav1.5)]”, the “reduction in number of invaded cells” value (SW620 cells [3]; SW620 cells, normoxia) was 17%, the “proportion” value [5] was 58% and the “peak VGSC current density” value [5] was 3.5 (0-7.5) pA/pF. The “Activation V1/2 (half-activation voltage)” value [5] was −28.1 ± 1.7 mV, the “Activation k (activation slope factor)” value [5] was 6.7 ± 0.6 mV and the “Inactivation V1/2 (half-inactivation voltage)” value [5] was −95.6 ± 2.1 mV. The “Inactivation k (inactivation slope factor)” value [5] was −6.7 ± 0.7 mV, the “Tinactivation (inactivation time constant)” value [5] was 1.35 ± 0.19 ms and the “Tpeak (time to peak)” value [5] was 0.90 ± 0.06 ms.

In the case of UAUCAUGGCGUAUGUAUCA [n2-siRNA], the “decrease in nNav1.5 mRNA levels” value (nNav1.5 mRNA; SW620 cells) is reported as 85±10%, the “reduction in number of invaded cells” value (SW620 cells [3]; SW620 cells, normoxia) is reported as 45% and the “proportion” value [5] is reported as 33%. The “peak VGSC current density” value [5] was 0.0 (0-2.4) pA/pF.
